Laboratory results reported in US11530244B2, “Cyclic polypeptides for PCSK9 inhibition” (priority 2018, dated 2022).
Starred links: 1 amine or outer side, 2 acyl side, 3 side chain; linkers in the order of their positions; H or OH if unused. Positions of bridges follow the written chain, without caps; N, C: chain ends. Non-standard residues stand in square brackets, D forms with d. Residues, ends and D or L forms follow the SMILES beside them. Groups on a side chain read outwards from the residue. *: point of attachment. Phe(3-CH2NH2) = O=C([C@H](Cc1cccc(CN[*:3])c1)N[*:1])[*:2]; PEG12 = NCCOCCOCCOCCOCCOCCOCCOCCOCCOCCOCCOCCOCCC(=O)O; X1 = O=C1CC[C@@H](C(=O)[*:1])N1CCCSCc1cccc(C[*:2])c1; Trp(5-F) = N[C@@H](Cc1c[nH]c2ccc(F)cc12)C(=O)O; X49 = NCCCC[C@H](N[*:1])c1nc(C(=O)[*:2])co1; mXylylene(5-F) = Fc1cc(C[*:1])cc(C[*:2])c1; γGlu = O=C(O)[C@H](CCC(=O)[*:2])N[*:1]; mXylylene = c1cc(C[*:1])cc(C[*:2])c1; X48 = CC(N[*:1])c1ncc(C(=O)[*:2])s1; Palmitoyl = CCCCCCCCCCCCCCCC(=O)*; PEG4 = NCCOCCOCCOCCOCCC(=O)O; αMeP = C[C@@]1(C(=O)O)CCCN1; X51 = COCCOCCOCCOCCC(=O)*; Aun = NCCCCCCCCCCC(=O)O; AEEA = NCCOCCOCC(=O)O; Mpa = O=C(O)CCS

Key:
Assay type in all cases: binding
[1] = target: human PCSK9 / human LDLR EGFa domain interaction (Homo sapiens (Human), UniProt Q8NBP7); assay: TR-FRET assay of inhibition of the PCSK9-LDLR protein-protein interaction; details: TR-FRET, 20 nM human PCSK9, 20 nM human LDLR EGFa domain, 2 hours room temperature; read-out: IC50
How it was run: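 Half-maximal inhibition was derived by 4-parameter fitting of dose-response TR-FRET data. Each well held 20 nM His-LDLR EGFa, 20 nM avitag-biotinylated PCSK9, Eu-anti-6×His and Ulight-streptavidin (5 nM each) in 50 mM HEPES, 150 mM NaCl, 5 mM CaCl2, 0.01% BSA, 0.01% Surfactant P20, incubated 2 h at room temperature.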

[2] = target: T1, PCSK9 (Homo sapiens (Human), UniProt Q8NBP7); assay: PCSK9 Alexa FRET Standard assay (displacement of AlexaFluor647 tagged cyclic peptide Reagent A); details: PCSK9 Alexa FRET Standard assay, 0.5 nM PCSK9, 20 nM AF cyclic peptide Reagent A; read-out: IC50
How it was run: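 TR-FRET displacement: 0.5 nM biotinylated PCSK9 with 1.25 nM Strep-Eu and 20 nM AlexaFluor-tagged cyclic peptide (final) in 50 mM HEPES pH 7.4, 0.15 M NaCl, 5 mM CaCl2, 0.01% BSA, 0.01% P20, ≥2 h at room temperature. IC50 from sigmoidal fit, converted to Ki via peptide KD; falling Eu counts flagged false positives.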

[3] = target: T1, PCSK9; assay: PCSK9 Alexa FRET Plus assay (displacement of AlexaFluor647 tagged cyclic peptide Reagent B); details: Alexa FRET Plus, 0.5 nM PCSK9, 960 nM AF cyclic peptide Reagent B; read-out: IC50
How it was run: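 TR-FRET displacement with final 0.5 nM biotinylated PCSK9, 1.25 nM Strep-Eu and 960 nM AlexaFluor-tagged cyclic peptide in HEPES pH 7.4, NaCl, CaCl2, BSA, P20; ≥2 h at room temperature. IC50 from sigmoidal fit, converted to Ki using peptide KD. Falling europium counts flagged false positives.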

Chain of human PCSK9 / human LDLR EGFa domain interaction (Q8NBP7 153-692): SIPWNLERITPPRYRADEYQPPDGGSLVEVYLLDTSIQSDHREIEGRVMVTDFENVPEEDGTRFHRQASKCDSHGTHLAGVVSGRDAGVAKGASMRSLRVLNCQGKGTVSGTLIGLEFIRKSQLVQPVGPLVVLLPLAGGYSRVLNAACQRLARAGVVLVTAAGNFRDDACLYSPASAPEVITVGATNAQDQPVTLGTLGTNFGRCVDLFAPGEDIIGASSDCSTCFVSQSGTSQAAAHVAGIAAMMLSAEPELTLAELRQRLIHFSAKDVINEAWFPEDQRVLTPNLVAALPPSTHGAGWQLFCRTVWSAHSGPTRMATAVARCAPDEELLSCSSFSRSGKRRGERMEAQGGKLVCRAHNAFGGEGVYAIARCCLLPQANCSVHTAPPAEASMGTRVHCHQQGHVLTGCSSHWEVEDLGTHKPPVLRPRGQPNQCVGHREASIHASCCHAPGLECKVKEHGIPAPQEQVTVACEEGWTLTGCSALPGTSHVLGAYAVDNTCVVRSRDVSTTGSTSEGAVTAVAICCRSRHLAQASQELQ
Chain of human PCSK9 / human LDLR EGFa domain interaction (Q8NBP7 31-152 partner): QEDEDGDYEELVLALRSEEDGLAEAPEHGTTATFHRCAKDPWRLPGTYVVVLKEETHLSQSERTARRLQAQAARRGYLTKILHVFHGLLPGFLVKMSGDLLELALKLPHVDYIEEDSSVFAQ
T1 sequence (Q8NBP7 153-692): as the sequence (Q8NBP7 153-692) above

Row | IC50 [1] | IC50 [2] | IC50 [3] | SMILES
1 | 0.1 to 100 nM | 0.11 to 100 nM | 100 to 500 nM | CC(C)C[C@@H]1NC(=O)[C@@H]2CCCN2C(=O)[C@H](Cc2c[nH]c3ccc(F)cc23)NC(=O)[C@H](Cc2c[nH]c3ccc(F)cc23)NC(=O)CNC(=O)[C@H](CCCCN)NC(=O)CCSCc2cccc(c2)CSC[C@@H](C(N)=O)NC(=O)[C@]2(C)CCCN2C(=O)[C@H](Cc2ccc(O)cc2)NC1=O [Compound 004] ([Mpa]KG[Trp(5-F)][Trp(5-F)]PLY[αMeP]C-NH2; linker 1-10 via mXylylene)
2 | 0.1 to 100 nM | 100 to 1000 nM | 500 to 5000 nM | CC[C@H](C)[C@@H]1NC(=O)[C@@H]2CCCN2C(=O)[C@H](Cc2c[nH]c3ccc(F)cc23)NC(=O)[C@H](Cc2c[nH]c3ccc(F)cc23)NC(=O)[C@@H](C)NC(=O)[C@H](CCCCN)NC(=O)CCSCc2cccc(c2)CSC[C@@H](C(N)=O)NC(=O)[C@]2(C)CCCN2C(=O)[C@H](Cc2ccc(OC)cc2)NC1=O [Compound 007] ([Mpa]K[dA][Trp(5-F)][Trp(5-F)]PIY(Me)[αMeP]C-NH2; linker 1-10 via mXylylene)
3 | 0.1 to 100 nM | 100 to 1000 nM | 500 to 5000 nM | COc1ccc(C[C@@H]2NC(=O)[C@H](C(C)C)NC(=O)[C@@H]3CCCN3C(=O)[C@H](Cc3c[nH]c4ccc(F)cc34)NC(=O)[C@H](Cc3c[nH]c4ccc(F)cc34)NC(=O)[C@@H](C)NC(=O)[C@H](CCCCN)NC(=O)CCSCc3cc(F)cc(c3)CSC[C@@H](C(N)=O)NC(=O)[C@]3(C)CCCN3C2=O)cc1 [Compound 010] ([Mpa]K[dA][Trp(5-F)][Trp(5-F)]PVY(Me)[αMeP]C-NH2; linker 1-10 via mXylylene(5-F))
4 | 0.1 to 100 nM | 0.11 to 100 nM | 0.1 to 100 nM | COc1ccc(C[C@@H]2NC(=O)[C@H](Cc3ccc(OC)cc3)NC(=O)[C@@H](CC(C)C)NC(=O)[C@H]([C@@H](C)OC)NC(=O)CCSCc3cccc(c3)CSC[C@@H](C(N)=O)NC(=O)[C@@H]3CCCN3C(=O)[C@H](Cc3ccc(OC)cc3)NC(=O)[C@H](Cc3ccc(OC)cc3)NC(=O)[C@H](CC(C)C)NC2=O)cc1 [Compound 034] ([Mpa]T(Me)[dL]Y(Me)Y(Me)LY(Me)Y(Me)PC-NH2; linker 1-10 via mXylylene)
5 |  | 1000 to 12100 nM | 500 to 5000 nM | C[C@@]12CCCN1C(=O)[C@H](Cc1ccc(O)cc1)NC(=O)[C@H](Cc1c[nH]cn1)NC(=O)[C@H](CC(=O)O)NC(=O)[C@H](Cc1c[nH]c3ccc(F)cc13)NC(=O)[C@H](Cc1c[nH]c3ccc(F)cc13)NC(=O)c1coc(n1)[C@H](CCCCN)NC(=O)CCSCc1cccc(c1)CSC[C@@H](C(N)=O)NC2=O [Compound 477] ([Mpa][X49][Trp(5-F)][Trp(5-F)]DHY[αMeP]C-NH2; linker 1-9 via mXylylene)
6 |  | 21000 to 50000 nM | 500 to 5000 nM | CCCCCCCCCCCCCCCC(=O)N[C@@H](CCC(=O)NCCOCCOCCOCCOCCOCCOCCOCCOCCOCCOCCOCCOCCC(=O)NCc1cccc(C[C@@H]2NC(=O)[C@@H](C)NC(=O)[C@H](CCCCN)NC(=O)CCSCc3cccc(c3)CSC[C@@H](C(N)=O)NC(=O)[C@]3(C)CCCN3C(=O)[C@H](Cc3ccc(O)cc3)NC(=O)[C@H](Cc3cnc[nH]3)NC(=O)[C@H](CC(=O)O)NC(=O)[C@H](Cc3c[nH]c4ccc(F)cc34)NC2=O)c1)C(=O)O [Compound 478] ([Mpa]K[dA][Phe(3-CH2NH2)]([PEG12-γGlu-Palmitoyl])[Trp(5-F)]DHY[αMeP]C-NH2; linker 1-10 via mXylylene)
7 |  | 0.11 to 100 nM | 500 to 5000 nM | CCCCCCCCCCCCCCCC(=O)N[C@@H](CCC(=O)NCCOCCOCC(=O)NCCOCCOCC(=O)NCCCC[C@H](NC(=O)CCCCCCCCCCNC(=O)[C@@H]1CSCc2cccc(c2)CSCCC(=O)N[C@@H](CCCCN)C(=O)N[C@H](C)C(=O)N[C@@H](Cc2c[nH]c3ccc(F)cc23)C(=O)N[C@@H](Cc2c[nH]c3ccc(F)cc23)C(=O)N[C@@H](CC(=O)O)C(=O)N[C@@H](Cc2cnc[nH]2)C(=O)N[C@@H](Cc2ccc(O)cc2)C(=O)N2CCC[C@@]2(C)C(=O)N1)C(N)=O)C(=O)O [Compound 479] ([Mpa]K[dA][Trp(5-F)][Trp(5-F)]DHY[αMeP]C[Aun]K([AEEA-AEEA-γGlu-Palmitoyl])-NH2; linker 1-10 via mXylylene)
8 |  | 100 to 1000 nM | 500 to 5000 nM | CC1NC(=O)[C@H](Cc2c[nH]c3ccc(F)cc23)NC(=O)[C@H](Cc2c[nH]c3ccc(F)cc23)NC(=O)[C@@H](C)NC(=O)[C@H](CCCCN)NC(=O)CCSCc2cccc(c2)CSC[C@@H](C(N)=O)NC(=O)[C@]2(C)CCCN2C(=O)[C@H](Cc2ccc(O)cc2)NC(=O)C2=CN=C1S2 (some centres unmarked) [Compound 480] ([Mpa]K[dA][Trp(5-F)][Trp(5-F)][X48]Y[αMeP]C-NH2; linker 1-9 via mXylylene)
9 |  | 1000 to 12100 nM | 500 to 5000 nM | C[C@@]12CCCN1C(=O)[C@H](Cc1ccc(O)cc1)NC(=O)[C@H](Cc1c[nH]cn1)NC(=O)[C@H](CC(=O)O)NC(=O)[C@H](Cc1c[nH]c3ccc(F)cc13)NC(=O)[C@H](Cc1c[nH]c3ccc(F)cc13)NC(=O)CNC(=O)[C@@H]1CCC(=O)N1CCCSCc1cccc(c1)CSC[C@@H](C(N)=O)NC2=O [Compound 481] (G[Trp(5-F)][Trp(5-F)]DHY[αMeP]C-NH2; linker N-8 via X1)
10 |  | 0.11 to 100 nM | 100 to 500 nM | C[C@@]12CCCN1C(=O)[C@H](Cc1ccc(O)cc1)NC(=O)[C@H](Cc1c[nH]cn1)NC(=O)[C@H](CC(=O)O)NC(=O)[C@H](Cc1c[nH]c3ccc(F)cc13)NC(=O)[C@H](Cc1c[nH]c3ccc(F)cc13)NC(=O)CNC(=O)[C@@H]1CCC(=O)N1CCCSCc1cccc(c1)CSC[C@@H](C(N)=O)NC2=O [Compound 482] (G[Trp(5-F)][Trp(5-F)]DHY[αMeP]C-NH2; linker N-8 via X1)
11 |  | 0.11 to 100 nM | 0.1 to 100 nM | COCCOCCOCCOCCC(=O)NCCCC[C@@H]1NC(=O)CCSCc2cccc(c2)CSC[C@@H](C(N)=O)NC(=O)[C@]2(C)CCCN2C(=O)[C@H](Cc2ccc(O)cc2)NC(=O)[C@H](Cc2cnc[nH]2)NC(=O)[C@H](CC(=O)O)NC(=O)[C@H](Cc2c[nH]c3ccc(F)cc23)NC(=O)[C@H](Cc2c[nH]c3ccc(F)cc23)NC(=O)CNC1=O [Compound 484] ([Mpa]K(X51)G[Trp(5-F)][Trp(5-F)]DHY[αMeP]C-NH2; linker 1-10 via mXylylene)
12 |  | 0.11 to 100 nM | 0.1 to 100 nM | C[C@@]12CCCN1C(=O)[C@H](Cc1ccc(O)cc1)NC(=O)[C@H](Cc1cnc[nH]1)NC(=O)[C@H](CC(=O)O)NC(=O)[C@H](Cc1c[nH]c3ccc(F)cc13)NC(=O)[C@H](Cc1c[nH]c3ccc(F)cc13)NC(=O)CNC(=O)[C@H](CCCCNC(=O)CCOCCOCCOCCOCCN)NC(=O)CCSCc1cccc(c1)CSC[C@@H](C(N)=O)NC2=O [Compound 485] ([Mpa]K(PEG4)G[Trp(5-F)][Trp(5-F)]DHY[αMeP]C-NH2; linker 1-10 via mXylylene)
13 |  | 100 to 1000 nM | 500 to 5000 nM | COc1ccc(C[C@@H]2NC(=O)[C@@H]3CCCC/C=C\CC[C@@]4(CCCN4C2=O)C(=O)NCCSCc2cccc(c2)CSCCC(=O)N[C@@H](C)C(=O)N[C@H](C)C(=O)N[C@H]2Cc4cccc(c4)CNC(=O)CC[C@@H](C(=O)N3)N3C(=O)[C@@H](NC2=O)C3c2c[nH]c3ccc(F)cc23)cc1 (some centres unmarked) [Compound 524]
14 |  | 100 to 1000 nM | 500 to 5000 nM | COc1ccc(C[C@@H]2NC(=O)[C@H]([C@H](C)O)NC(=O)[C@@H]3CCCc4cn(nn4)CC[C@H](NC(=O)[C@@H](C)NC(=O)[C@H](C)NC(=O)CCSCc4cccc(c4)CSCCNC(=O)[C@]4(C)CCCN4C2=O)C(=O)N[C@@H](Cc2c[nH]c4ccc(F)cc24)C(=O)N3)cc1 [Compound 525]
